Numbers after ± are expanded uncertainties.
Key:
[1] = DTA
[2] = Molar enthalpy of transition or fusion; settings: DSC

## CCCCCCOCn1cc[n+](COCCCCCC)c1.F[B-](F)(F)F
[1]; Crystal 1
  Triple point temperature: 309.5 ± 6.2 K
[1]; Crystal 2
  Triple point temperature: 243.6 ± 4.9 K
[1]; Crystal 3
  Triple point temperature: 142.6 ± 2.9 K
[2]; Crystal 1
  Molar enthalpy of transition or fusion: 12.8 ± 0.5 kJ/mol
[2]; Crystal 2
  Molar enthalpy of transition or fusion: 0.7 ± 0.3 kJ/mol
[2]; Crystal 3
  Molar enthalpy of transition or fusion: 2 ± 0.3 kJ/mol

## CCCCCCOCn1cc[n+](COCCCCCC)c1.O=S(=O)([N-]S(=O)(=O)C(F)(F)F)C(F)(F)F
[1]; Crystal 1
  Triple point temperature: 273.8 ± 5.5 K
[1]; Glass
  Glass transition temperature: -81.3 ± 3.9 °C
[2]; Crystal 1
  Molar enthalpy of transition or fusion: 16 ± 0.5 kJ/mol

Reference: the NIST ThermoML archive (doi:10.1016/j.fluid.2006.07.005)
